Source: ChEMBL document CHEMBL1143830, “Compartmental pharmacokinetic analysis of oral amprenavir with secondary peaks” (Antimicrob Agents Chemother, 2007)

What was measured:
Format in all cases: ADME, organism-based
[1] = Distribution half life at alpha phase in HIV-seronegative human at 600 mg, po by two compartment model; details: in vivo
[2] = Total clearance in HIV-seronegative human at 600 mg, po by two compartment model; details: in vivo
[3] = Central volume of distribution in HIV-seronegative human at 600 mg, po by two compartment model; details: in vivo, read-out: Vc/F
[4] = Elimination half life at beta phase in HIV-seronegative human at 600 mg, po by two compartment model; details: in vivo

CC(C)CN(C[C@@H](O)[C@H](Cc1ccccc1)NC(=O)O[C@H]1CCOC1)S(=O)(=O)c1ccc(N)cc1 [AMPRENAVIR]
half-life [1]: 0.547 h | CL/F [2]: 19.4 mL/min/kg | Vd/F [3]: 1.21 L/kg | half-life [4]: 15.8 h
